The source of these data is US20250340570A1, “COMPOSITIONS USEFUL FOR MODULATING SPLICING” (Skyhawk Therapeutics, Inc., priority 2022, published 2025).

The test system of assay [1] is ATXN3 transcripts containing exon 4. Kind of assay: ATXN3 quantitative splicing assay (qPCR, E4E5 transcripts containing exon 4). The following applies: Human neuroblastoma SK-N-MC cells, 24 h treatment, qPCR primers/probe E4E5. The format is cell-based. The method, then:
Human neuroblastoma SK-N-MC cells were plated in 384-well plates at 20,000 cells/well. Twenty-four hours after plating, cells were treated with compounds for 24 h at appropriate concentrations ranging from 30 μM to 0.6 nM (0.3% DMSO). Treated cells were lysed in 15 μL of lysis buffer, and cDNA was synthesized using the Fast Advanced Cells-to-Ct kit. Two μL of each cDNA was used in qPCR reactions to confirm the exon 4 skipped transcripts of ATXN3. A second set of primers/probe E4E5 was used to detect the transcripts containing exon 4. The third set of primers/probe E8E9 was used to detect total gene level of ATXN3. The qPCR reactions were prepared in 384-well plates in 10.L volume, using TaqMan™ Fast Advanced Master Mix with primers and probes shown in the table below. Reactions were run in a Quant Studio 6 qPCR instrument with default settings.
The primers and probes are listed below in Table 5.

Assay [2] deals with total ATXN3 protein. The assay is described as follows: ATXN3 total protein assay (Mesoscale Discovery). Type of assay: cell-based. The settings on record: Human neuroblastoma SK-N-MC cells, 48 hours incubation, MSD assay. Here is the method: Human neuroblastoma SK-N-MC cells were seeded at 10,000 cells/well in 384 well plates one day prior to compound treatment. The concentrations of compounds were tested at appropriate doses ranging from 30 µM to 0.6 nM. After incubation for 48 hours, the cells were lysed with 25.L of lysis buffer containing protease inhibitors, and total ATXN3 protein levels were assessed by Mesoscale Discovery (MSD) assay developed with one pair of and-ATXN3 antibodies. The capture and detect antibodies were raised in mouse and rabbit respectively. Anti-rabbit MSD-ST antibody was used for secondary antibody.
ATXN3 recombinant protein was used for standards. The readouts were captured with 35.L of MSD read buffer and multi-array 384-well high binding plates.

pIC50: −log10 of the molar value.

Take `N[C@@H](CO)Cc1sc2c(NCc3cccs3)snc2c1Cl` [Compound 43, (R)-2-amino-3-(8-chloro-4-thenylamino-3,6-dithia-2-azabicyclo[3.3.0]octa-1,4,7-trien-7-yl)-1-propanol]: the values for the pIC50 in assay [1] and in assay [2] were 5.30 to 6.30 and 6.30 to 7.00, respectively.

As to `COC[C@H](N)Cc1sc2c(NCc3cccs3)snc2c1Cl` [Compound 44, 7-[(R)-2-amino-3-methoxypropyl]-8-chloro-4-thenylamino-3,6-dithia-2-azabicyclo[3.3.0]octa-1,4,7-triene], the pIC50 – broadly, the negative decadic logarithm of the IC50, by convention in mol/L – in assay [1] was 5.00 to 5.30; in assay [2], 5.30 to 6.30.

Turning to `Cc1c(CCCN)sc2c(NCc3cccs3)snc12` [Compound 45, 7-(3-aminopropyl)-8-methyl-4-thenylamino-3,6-dithia-2-azabicyclo[3.3.0]octa-1,4,7-triene], the pIC50 in assay [1] and in assay [2] was 4.40 to 5.00 in each case.

Turning to `N[C@@H](CO)Cc1sc2c(NCc3ccco3)snc2c1Cl` [Compound 46, (R)-2-amino-3-{8-chloro-4-(furfurylamino)-3,6-dithia-2-azabicyclo[3.3.0]octa-1,4,7-trien-7-yl}-1-propanol], the negative-log IC50 (pIC50) in assay [1] and in assay [2] was 6.30 to 7.00 throughout.

As for `N[C@@H](CF)Cc1sc2c(NCc3cccs3)snc2c1Cl` [Compound 47, 7-[(R)-2-amino-3-fluoropropyl]-8-chloro-4-thenylamino-3,6-dithia-2-azabicyclo[3.3.0]octa-1,4,7-triene], the pIC50 in assay [1] and in assay [2] was 6.30 to 7.00 throughout.

On to `N[C@@H](CF)Cc1sc2c(NCc3ccco3)snc2c1Cl` [Compound 48, 7-[(R)-2-amino-3-fluoropropyl]-8-chloro-4-(furfurylamino)-3,6-dithia-2-azabicyclo[3.3.0]octa-1,4,7-triene], for which the pIC50 in assay [1] and in assay [2] was 6.30 to 7.00 in each case.

As for `N[C@H](Cc1sc2c(NCc3cccs3)snc2c1Br)CC1CC1` [Compound 49, 7-[(S)-2-amino-3-cyclopropylpropyl]-8-bromo-4-thenylamino-3,6-dithia-2-azabicyclo[3.3.0]octa-1,4,7-triene], the pIC50 in assay [1] and in assay [2] was 5.30 to 6.30 throughout.

With `N[C@H](Cc1sc2c(NCc3cccs3)snc2c1Cl)C1CC(F)(F)C1` [Compound 53, 7-[(R)-2-amino-2-(3,3-difluorocyclobutyl)eth-yl]-8-chloro-4-thenylamino-3,6-dithia-2-azabicyclo[3.3.0]octa-1,4,7-triene], the pIC50 in assay [1] and in assay [2] was 5.30 to 6.30 in each case.

Turning to `C#C[C@H](N)Cc1sc2c(NCc3cccs3)snc2c1C` [Compound 54, 7-[(R)-2-amino-3-butynyl]-8-methyl-4-thenylamino-3,6-dithia-2-azabicyclo[3.3.0]octa-1,4,7-triene], the pIC50 in assay [1] and in assay [2] was 5.30 to 6.30 in each case.

As for `CC#C[C@H](N)Cc1sc2c(NCc3cccs3)snc2c1C` [Compound 55, 7-[(R)-2-amino-3-pentynyl]-8-methyl-4-thenylamino-3,6-dithia-2-azabicyclo[3.3.0]octa-1,4,7-triene], the pIC50 in assay [1] and in assay [2] was 4.40 to 5.00 throughout.

Regarding `N[C@H](Cc1sc2c(NCc3ccco3)snc2c1Cl)CC1CC1` [Compound 57, 7-[(S)-2-amino-3-cyclopropylpropyl]-8-chloro-4-(furfurylamino)-3,6-dithia-2-azabicyclo[3.3.0]octa-1,4,7-triene], the pIC50 in assay [1] was 6.30 to 7.00; in assay [2] it was 5.30 to 6.30.

For the compound `N[C@H](Cc1sc2c(NCc3cccs3)snc2c1Cl)CC1CC1` [Compound 58, 7-[(S)-2-amino-3-cyclopropylpropyl]-8-chloro-4-thenylamino-3,6-dithia-2-azabicyclo[3.3.0]octa-1,4,7-triene], the pIC50 in assay [1] and in assay [2] was 5.30 to 6.30 each time.

For the compound `N[C@@H](CO)Cc1sc2c(NCc3cccs3)snc2c1Br` [Compound 59, (R)-2-amino-3-(8-bromo-4-thenylamino-3,6-dithia-2-azabicyclo[3.3.0]octa-1,4,7-trien-7-yl)-1-propanol], the pIC50 in assay [1] and in assay [2] was 6.30 to 7.00 each time.

With `N[C@@H](CO)Cc1sc2c(NCc3ccco3)snc2c1Br` [Compound 60, (R)-2-amino-3-{8-bromo-4-(furfurylamino)-3,6-dithia-2-azabicyclo[3.3.0]octa-1,4,7-trien-7-yl}-1-propanol], the pIC50 in assay [1] and in assay [2] was 7.00 to 11.00 in each case.

`N[C@H](Cc1sc2c(NCc3ccco3)snc2c1Br)CC1CC1` [Compound 61, 7-[(S)-2-amino-3-cyclopropylpropyl]-8-bromo-4-(furfurylamino)-3,6-dithia-2-azabicyclo[3.3.0]octa-1,4,7-triene]: the pIC50 in assay [1] and in assay [2] was 6.30 to 7.00 in each case.

For `COC[C@H](N)Cc1sc2c(NCc3cccs3)snc2c1Br` [Compound 62, 7-[(R)-2-amino-3-methoxypropyl]-8-bromo-4-thenylamino-3,6-dithia-2-azabicyclo[3.3.0]octa-1,4,7-triene], the pIC50 in assay [1] was 6.30 to 7.00; in assay [2], 5.30 to 6.30.

Turning to `COC[C@H](N)Cc1sc2c(NCc3ccco3)snc2c1Br` [Compound 63, 7-[(R)-2-amino-3-methoxypropyl]-8-bromo-4-(furfurylamino)-3,6-dithia-2-azabicyclo[3.3.0]octa-1,4,7-triene], the pIC50 in assay [1] and in assay [2] was 6.30 to 7.00 throughout.

As for `COC[C@H](N)Cc1sc2c(NCc3cccs3)snc2c1C` [Compound 64, 7-[(R)-2-amino-3-methoxypropyl]-8-methyl-4-thenylamino-3,6-dithia-2-azabicyclo[3.3.0]octa-1,4,7-triene], the pIC50 in assay [1] and in assay [2] was 5.30 to 6.30 in each case.

In the case of `COC[C@H](N)Cc1sc2c(NCc3ccco3)snc2c1Cl` [Compound 65, 7-[(R)-2-amino-3-methoxypropyl]-8-chloro-4-(furfurylamino)-3,6-dithia-2-azabicyclo[3.3.0]octa-1,4,7-triene], the pIC50 in assay [1] was 5.30 to 6.30; in assay [2], 6.30 to 7.00.

Regarding `C[C@H](N)Cc1cc2nsc(NCc3cccs3)c2s1` [Compound 66, 5-[(2S)-2-aminopropyl]-N-(thiophen-2-ylmethyl)thieno[3,2-c][1,2]thiazol-3-amine], the pIC50 in assay [1] and in assay [2] was 4.40 to 5.00 each time.

For the compound `FC(F)(F)c1csc2c(NCc3cccs3)snc12` [Compound 67, (thenyl){8-(trifluoromethyl)-3,6-dithia-2-azabicyclo[3.3.0]octa-1,4,7-trien-4-yl}amine], the pIC50 in assay [1] and in assay [2] was 4.40 to 5.00 in each case.

For the compound `Cc1c(C[C@@H](N)CC(F)F)sc2c(NCc3cccs3)snc12` [Compound 68, 7-[(S)-2-amino-4,4-difluorobutyl]-8-methyl-4-thenylamino-3,6-dithia-2-azabicyclo[3.3.0]octa-1,4,7-triene], the pIC50 in assay [1] and in assay [2] was 4.40 to 5.00 each time.

As for `N[C@H](Cc1sc2c(NCc3cccs3)snc2c1Cl)CC(F)F` [Compound 69, 7-[(S)-2-amino-4,4-difluorobutyl]-8-chloro-4-thenylamino-3,6-dithia-2-azabicyclo[3.3.0]octa-1,4,7-triene], the pIC50 in assay [1] and in assay [2] was 4.40 to 5.00 each time.

As for `N[C@H](Cc1sc2c(NCc3cccs3)snc2c1Br)CC(F)F` [Compound 70, 7-[(S)-2-amino-4,4-difluorobutyl]-8-bromo-4-thenylamino-3,6-dithia-2-azabicyclo[3.3.0]octa-1,4,7-triene], the pIC50 in assay [1] and in assay [2] was 4.40 to 5.00 each time.

With `Cc1c(C[C@@H](N)c2ccccc2)sc2c(NCc3cccs3)snc12` [Compound 71, 7-[(R)-2-amino-2-phenylethyl]-8-methyl-4-thenylamino-3,6-dithia-2-azabicyclo[3.3.0]octa-1,4,7-triene], the pIC50 in assay [1] is 4.40 to 5.00; in assay [2], 5.00 to 5.30.

With `Cc1c(C[C@@H](N)[C@H](C)F)sc2c(NCc3cccs3)snc12` [Compound 72, 7-[(2R,3S)-2-amino-3-fluorobutyl]-8-methyl-4-thenylamino-3,6-dithia-2-azabicyclo[3.3.0]octa-1,4,7-triene], the pIC50 was 5.30 to 6.30 in assay [1] and 6.30 to 7.00 in assay [2].

In the case of `Cc1c(C[C@@H](N)[C@@H](C)F)sc2c(NCc3cccs3)snc12` [Compound 73, 7-[(2R,3R)-2-amino-3-fluorobutyl]-8-methyl-4-thenylamino-3,6-dithia-2-azabicyclo[3.3.0]octa-1,4,7-triene], the pIC50 in assay [1] is 4.40 to 5.00; in assay [2], 5.00 to 5.30.

As for `C[C@H](F)[C@H](N)Cc1sc2c(NCc3cccs3)snc2c1Cl` [Compound 74, 7-[(2R,3S)-2-amino-3-fluorobutyl]-8-chloro-4-thenylamino-3,6-dithia-2-azabicyclo[3.3.0]octa-1,4,7-triene], the pIC50 in assay [1] and in assay [2] was 6.30 to 7.00 throughout.

Turning to `C[C@@H](F)[C@H](N)Cc1sc2c(NCc3cccs3)snc2c1Cl` [Compound 75, 7-[(2R,3R)-2-amino-3-fluorobutyl]-8-chloro-4-thenylamino-3,6-dithia-2-azabicyclo[3.3.0]octa-1,4,7-triene], the pIC50 was 6.30 to 7.00 in assay [1] and 5.30 to 6.30 in assay [2].
